Read-outs that look alike come from different tables or passages of the source.
Key:
[1] = system: human mononuclear cells (PBMC) stimulated with staphylococcal enterotoxin B (SEB); assay: cells; format: cell-based
[2] = biological target: T1, LFA-1 (Homo sapiens, UniProt P20701); conditions: at greater than 90% occupancy of LFA-1; cited from earlier work
T1 construct: greater than 90% occupancy of LFA-1 with efalizumab led to a greater than 50% clinical improvement in PASI score in a clinical trial; host or cells: leukocytes of psoriasis patients (in vivo)
T1 sequence (P20701 26-1170): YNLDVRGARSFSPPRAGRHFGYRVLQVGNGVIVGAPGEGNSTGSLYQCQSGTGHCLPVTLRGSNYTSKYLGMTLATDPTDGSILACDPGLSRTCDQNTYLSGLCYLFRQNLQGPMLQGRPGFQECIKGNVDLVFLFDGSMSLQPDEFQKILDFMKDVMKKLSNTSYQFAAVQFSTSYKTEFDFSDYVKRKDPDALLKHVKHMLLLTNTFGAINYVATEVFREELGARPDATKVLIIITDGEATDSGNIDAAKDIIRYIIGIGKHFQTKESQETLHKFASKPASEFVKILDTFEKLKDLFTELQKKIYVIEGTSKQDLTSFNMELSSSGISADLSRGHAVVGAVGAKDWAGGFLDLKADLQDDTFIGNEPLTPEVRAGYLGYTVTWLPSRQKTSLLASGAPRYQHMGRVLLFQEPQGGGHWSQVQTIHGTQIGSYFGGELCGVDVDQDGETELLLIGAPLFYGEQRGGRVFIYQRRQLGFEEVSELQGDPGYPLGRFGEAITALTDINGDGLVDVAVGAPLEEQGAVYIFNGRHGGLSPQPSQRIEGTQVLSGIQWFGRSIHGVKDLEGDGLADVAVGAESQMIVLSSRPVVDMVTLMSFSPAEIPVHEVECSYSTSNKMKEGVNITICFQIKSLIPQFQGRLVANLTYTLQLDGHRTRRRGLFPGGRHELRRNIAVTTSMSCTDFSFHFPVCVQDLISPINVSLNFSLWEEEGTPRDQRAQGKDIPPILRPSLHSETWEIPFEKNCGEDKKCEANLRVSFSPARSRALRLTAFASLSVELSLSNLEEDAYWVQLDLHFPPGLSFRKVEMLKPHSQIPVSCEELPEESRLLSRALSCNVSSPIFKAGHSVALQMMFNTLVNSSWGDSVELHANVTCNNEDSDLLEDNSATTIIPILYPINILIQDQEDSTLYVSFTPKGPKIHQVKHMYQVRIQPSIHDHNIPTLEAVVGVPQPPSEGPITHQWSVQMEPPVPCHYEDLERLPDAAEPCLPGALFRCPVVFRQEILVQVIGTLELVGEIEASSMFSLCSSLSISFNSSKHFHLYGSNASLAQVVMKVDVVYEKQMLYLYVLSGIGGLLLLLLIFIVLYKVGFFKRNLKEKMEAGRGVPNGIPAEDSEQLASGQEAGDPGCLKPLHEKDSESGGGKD
T1 sequence (P05107 23-769 partner): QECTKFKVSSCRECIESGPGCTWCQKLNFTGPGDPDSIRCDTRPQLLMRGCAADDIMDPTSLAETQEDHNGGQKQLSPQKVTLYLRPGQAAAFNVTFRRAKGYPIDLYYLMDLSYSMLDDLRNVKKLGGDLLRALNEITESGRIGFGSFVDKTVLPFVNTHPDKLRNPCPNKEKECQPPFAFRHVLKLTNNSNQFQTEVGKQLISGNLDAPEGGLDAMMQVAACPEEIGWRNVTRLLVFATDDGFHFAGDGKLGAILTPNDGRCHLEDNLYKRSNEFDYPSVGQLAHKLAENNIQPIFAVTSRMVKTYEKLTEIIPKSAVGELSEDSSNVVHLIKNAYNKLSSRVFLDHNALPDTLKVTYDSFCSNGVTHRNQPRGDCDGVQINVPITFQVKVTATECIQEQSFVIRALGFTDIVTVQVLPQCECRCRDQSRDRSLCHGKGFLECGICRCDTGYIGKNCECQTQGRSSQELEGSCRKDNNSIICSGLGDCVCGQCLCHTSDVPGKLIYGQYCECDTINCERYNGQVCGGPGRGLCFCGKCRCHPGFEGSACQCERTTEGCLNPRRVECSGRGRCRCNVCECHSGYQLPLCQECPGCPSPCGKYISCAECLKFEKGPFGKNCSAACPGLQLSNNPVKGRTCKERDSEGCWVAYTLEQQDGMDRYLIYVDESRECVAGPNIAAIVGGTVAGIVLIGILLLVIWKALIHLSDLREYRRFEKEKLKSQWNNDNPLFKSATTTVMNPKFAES

Row | Compound | EC50 ([1]; read-out: EC50 Cytokine Release GM-CSF) [mM] | EC50 ([1]; read-out: EC50 Cytokine Release IFNγ) [mM] | EC50 ([1]; read-out: EC50 Cytokine Release IL-1α) [mM] | EC50 ([1]; read-out: EC50 Cytokine Release IL-1β) [mM] | EC50 ([1]; read-out: EC50 Cytokine Release IL-2) [mM] | EC50 ([1]; read-out: EC50 Cytokine Release IL-3) [mM] | EC50 ([1]; read-out: EC50 Cytokine Release IL-4) [mM] | EC50 ([1]; read-out: EC50 Cytokine Release IL-5) [mM] | EC50 ([1]; read-out: EC50 Cytokine Release IL-6) [mM] | EC50 ([1]; read-out: EC50 Cytokine Release IL-10) [mM] | EC50 ([1]; read-out: EC50 Cytokine Release IL-12p40) [mM] | EC50 ([1]; read-out: EC50 Cytokine Release IL-13) [mM] | EC50 ([1]; read-out: EC50 Cytokine Release IP-10) [mM] | EC50 ([1]; read-out: EC50 Cytokine Release MCP-1) [mM] | EC50 ([1]; read-out: EC50 Cytokine Release MIP-1α) [mM] | EC50 ([1]; read-out: EC50 Cytokine Release TNF-α) [mM] | clinical improvement in PASI score [2]
1 | O=C(NC(Cc1cc(=O)[nH]c2ccccc12)C(=O)O)c1ccc(Cl)cc1 (centres unmarked) [Rebamipide, reference compound] | > 1 | > 1 | > 1 | > 1 | > 1 | > 1 | > 1 | > 1 | > 1 | > 1 | > 1 | > 1 | > 1 | > 1 | > 1 | > 1 | –
2 | efalizumab: antibody binding LFA-1, clinical trial in plaque psoriasis | – | – | – | – | – | – | – | – | – | – | – | – | – | – | – | – | greater than 50%

From patent publication US20090258069A1, “Delivery of LFA-1 antagonists to the gastrointestinal system” (priority 2008, published 2009)
